# How the values were obtained:
# Type in all cases: cell-based
# CFTR ΔF508 mutant [1] = target: T1, CFTR ΔF508 mutant (Homo sapiens, UniProt P13569, DEL508-508); experiment: YFP-halide influx assay for the CFTR-ΔF508 mutation, PBS buffer (96 well); conditions: CFBE41o- cells, forskolin 10.67 μM
# T1 construct: expressed in transfected cells; host or cells: CFBE41o- (adenoviral transduction)
# Summary of the method: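 CFBE41o- cells were adenovirally transduced with CFTR ΔF508 and YFP H148Q/I152L, then incubated 24 h at 27 °C or with a CFTR modulator at 37 °C. I⁻-induced fluorescence quenching was recorded over 7 s after injection; response expressed as 1−F/F0, with EC50 from concentration plots.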
# CFTR ΔF508 mutant [2] = target: T1, CFTR ΔF508 mutant; experiment: YFP-halide influx assay for the CFTR-ΔF508 mutation, gluconate buffer; conditions: CFBE41o- cells, forskolin 10.67 μM
# Summary of the method: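 CFBE41o- cells adenovirally transduced with CFTR ΔF508 and YFP H148Q/I152L, then held 24 h at 27 °C or treated with CFTR modulator 24 h at 37 °C. I− quenching recorded for 7 s after injection; activity as 1-F/F0, EC50 from concentration plot.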
# CFTR G551D mutant = target: T2, CFTR G551D mutant (Homo sapiens, UniProt P13569, G551D); experiment: YFP-halide influx assay for the CFTR-G551D mutation; conditions: HEK293 cells, forskolin 10.67 μM
# T2 construct: expressed in transfected cells; host or cells: HEK293 (reverse transfection with plasmid)
# T2 sequence (P13569 whole entry G551D): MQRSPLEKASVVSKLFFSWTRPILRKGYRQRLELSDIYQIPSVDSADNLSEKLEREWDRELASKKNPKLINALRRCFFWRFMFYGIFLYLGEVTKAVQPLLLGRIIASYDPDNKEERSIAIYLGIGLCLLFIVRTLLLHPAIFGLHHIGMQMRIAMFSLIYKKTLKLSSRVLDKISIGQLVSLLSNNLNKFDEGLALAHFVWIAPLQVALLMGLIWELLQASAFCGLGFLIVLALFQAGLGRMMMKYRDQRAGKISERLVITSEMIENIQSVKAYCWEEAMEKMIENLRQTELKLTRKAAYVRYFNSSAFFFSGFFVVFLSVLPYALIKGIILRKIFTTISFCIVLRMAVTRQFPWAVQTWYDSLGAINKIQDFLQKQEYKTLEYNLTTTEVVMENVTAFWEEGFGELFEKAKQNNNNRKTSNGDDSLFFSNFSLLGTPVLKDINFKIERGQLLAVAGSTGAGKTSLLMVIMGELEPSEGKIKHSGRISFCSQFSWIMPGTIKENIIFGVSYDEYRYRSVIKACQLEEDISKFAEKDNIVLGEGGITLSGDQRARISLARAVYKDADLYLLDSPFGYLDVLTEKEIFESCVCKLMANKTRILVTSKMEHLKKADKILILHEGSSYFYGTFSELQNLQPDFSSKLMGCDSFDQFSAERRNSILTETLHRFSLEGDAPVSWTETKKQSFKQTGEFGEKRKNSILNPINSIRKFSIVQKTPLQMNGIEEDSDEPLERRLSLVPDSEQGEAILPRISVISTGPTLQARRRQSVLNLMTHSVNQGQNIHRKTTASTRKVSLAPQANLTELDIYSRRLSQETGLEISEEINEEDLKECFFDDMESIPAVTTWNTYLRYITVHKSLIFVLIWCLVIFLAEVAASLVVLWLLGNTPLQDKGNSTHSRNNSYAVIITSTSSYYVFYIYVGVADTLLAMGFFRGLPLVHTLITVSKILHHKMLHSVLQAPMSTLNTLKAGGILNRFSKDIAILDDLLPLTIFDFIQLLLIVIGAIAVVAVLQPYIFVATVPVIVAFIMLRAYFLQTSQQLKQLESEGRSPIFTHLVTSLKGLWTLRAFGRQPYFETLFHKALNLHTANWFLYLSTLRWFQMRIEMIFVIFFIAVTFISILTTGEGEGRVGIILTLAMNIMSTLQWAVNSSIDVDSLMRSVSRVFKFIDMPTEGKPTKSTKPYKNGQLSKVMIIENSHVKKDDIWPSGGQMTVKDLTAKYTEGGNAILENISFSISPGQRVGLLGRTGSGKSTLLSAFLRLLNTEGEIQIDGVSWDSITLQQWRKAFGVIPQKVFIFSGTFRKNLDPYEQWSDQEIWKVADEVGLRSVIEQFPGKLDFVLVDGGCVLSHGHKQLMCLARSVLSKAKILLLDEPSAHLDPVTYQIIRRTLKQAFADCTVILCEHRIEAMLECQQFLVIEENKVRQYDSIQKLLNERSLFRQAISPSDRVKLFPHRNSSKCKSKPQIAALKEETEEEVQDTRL
# Summary of the method: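 HEK293 cells reverse-transfected with CFTR G551D and YFP H148Q/I152L/F47L halide sensor, expressed 24 h at 37 °C. Iodide-induced fluorescence quench recorded 7 s after I− injection; response = 1−F/F0, with EC50 from plot against compound concentration.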
# CFTR ΔF508 mutant [3] = target: T1, CFTR ΔF508 mutant; experiment: YFP-halide influx assay for the CFTR-ΔF508 mutation (384 well, FDSS/μCell); conditions: CFBE41o- cells, CFTR-ΔF508, 1×D-PBS, fluorescence after 36 seconds
# Summary of the method: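 Potentiator read-out as 1−F/F0, F taken 36 s after iodide addition, EC50 fitted against compound concentration. Cells: CFBE41o- expressing ΔF508 CFTR plus halide-sensitive YFP via adenovirus, rescued by 27 °C for 24 h or 24 h modulator at 37 °C.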
# T1 sequence (P13569 with tags, fused parts or gaps DEL508-508): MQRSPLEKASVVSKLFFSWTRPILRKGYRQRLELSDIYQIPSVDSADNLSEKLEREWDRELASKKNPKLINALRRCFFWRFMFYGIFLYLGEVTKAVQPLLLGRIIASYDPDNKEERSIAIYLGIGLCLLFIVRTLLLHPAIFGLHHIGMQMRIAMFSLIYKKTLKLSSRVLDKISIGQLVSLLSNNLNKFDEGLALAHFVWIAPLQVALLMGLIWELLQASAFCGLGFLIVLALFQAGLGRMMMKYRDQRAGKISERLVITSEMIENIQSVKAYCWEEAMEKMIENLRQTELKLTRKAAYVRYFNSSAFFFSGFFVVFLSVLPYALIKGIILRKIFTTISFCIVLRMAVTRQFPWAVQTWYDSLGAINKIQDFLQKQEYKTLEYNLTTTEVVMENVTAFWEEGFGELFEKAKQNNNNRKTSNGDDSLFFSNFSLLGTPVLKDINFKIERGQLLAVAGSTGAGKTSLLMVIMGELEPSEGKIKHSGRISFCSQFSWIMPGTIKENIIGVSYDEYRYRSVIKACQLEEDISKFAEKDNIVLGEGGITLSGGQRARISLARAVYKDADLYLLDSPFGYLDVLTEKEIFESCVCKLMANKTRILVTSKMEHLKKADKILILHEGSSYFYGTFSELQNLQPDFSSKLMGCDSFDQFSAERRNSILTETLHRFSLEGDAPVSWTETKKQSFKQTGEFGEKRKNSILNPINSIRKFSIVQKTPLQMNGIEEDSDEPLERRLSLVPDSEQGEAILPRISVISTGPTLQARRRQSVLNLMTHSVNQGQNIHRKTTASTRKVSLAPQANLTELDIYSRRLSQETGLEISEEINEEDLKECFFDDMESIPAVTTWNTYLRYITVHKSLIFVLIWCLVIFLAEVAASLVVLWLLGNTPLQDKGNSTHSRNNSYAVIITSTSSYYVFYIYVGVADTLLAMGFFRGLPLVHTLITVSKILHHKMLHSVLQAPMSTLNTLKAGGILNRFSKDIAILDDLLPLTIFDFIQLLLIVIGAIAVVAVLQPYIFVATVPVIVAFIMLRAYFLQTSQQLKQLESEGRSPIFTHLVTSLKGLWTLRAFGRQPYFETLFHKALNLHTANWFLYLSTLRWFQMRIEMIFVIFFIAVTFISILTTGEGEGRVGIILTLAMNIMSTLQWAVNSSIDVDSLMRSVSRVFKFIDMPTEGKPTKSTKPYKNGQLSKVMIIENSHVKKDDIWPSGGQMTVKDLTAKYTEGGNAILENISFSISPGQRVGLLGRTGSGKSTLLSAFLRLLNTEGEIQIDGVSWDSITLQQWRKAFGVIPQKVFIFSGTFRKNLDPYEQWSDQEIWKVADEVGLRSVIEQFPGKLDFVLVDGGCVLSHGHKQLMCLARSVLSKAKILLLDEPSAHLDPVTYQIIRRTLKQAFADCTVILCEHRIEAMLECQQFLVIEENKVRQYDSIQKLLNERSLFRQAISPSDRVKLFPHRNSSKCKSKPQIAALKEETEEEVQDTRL
EC50 (CFTR ΔF508 mutant [1]),EC50 (CFTR ΔF508 mutant [2]),EC50 (CFTR G551D mutant),EC50 (CFTR ΔF508 mutant [3]),Compound
0.125 µM,0.317 µM,0.442 µM,0.0481 µM,"CN(Cc1ccncc1)S(=O)(=O)c1cc(C(N)=O)c(NC(=O)c2cc[nH]n2)s1 [Compound 207, N-(3-carbamoyl-5-(N-methyl-N-(pyridin-4-ylmethyl)sulfamoyl)thiophen-2-yl)-1H-pyrazole-3-carboxamide]"
0.114 µM,0.293 µM,5.68 µM,0.0684 µM,"CC(C)(C)C(=O)Nc1sc(S(=O)(=O)c2cccc(F)c2)cc1C(N)=O [Compound 122, 5-(3-fluorophenylsulfonyl)-2-pivalamidothiophene-3-carboxamide]"
0.164 µM,0.195 µM,,,"CC(C)(CO)C(=O)Nc1sc(S(=O)(=O)N2CCC(F)(F)CC2)cc1C(N)=O [Compound 217, 5-(4,4-difluoropiperidin-1-ylsulfonyl)-2-(3-hydroxy-2,2-dimethylpropanamido) thiophene-3-carboxamide]"
0.216 µM,0.709 µM,,,"Cc1cccc(C(=O)Nc2sc(S(=O)(=O)N3CCOCC3)cc2C(N)=O)c1O [Compound 216, 2-(2-hydroxy-3-methylbenzamido)-5-(morpholinosulfonyl) thiophene-3-carboxamide]"
0.0494 µM,0.11 µM,1.16 µM,0.0261 µM,"CC(C)(O)C(=O)Nc1sc(S(=O)(=O)c2ccc(F)cc2)cc1C(N)=O [Compound 221, 5-(4-fluorophenylsulfonyl)-2-(2-hydroxy-2-methylpropanamido) thiophene-3-carboxamide]"
0.0541 µM,0.103 µM,0.511 µM,0.035 µM,"NC(=O)c1cc(S(=O)(=O)c2ccc(F)cc2)sc1NC(=O)C1(O)CC1 [Compound 224, 5-(4-fluorophenylsulfonyl)-2-(1-hydroxycyclopropanecarboxamido) thiophene-3-carboxamide]"
0.0617 µM,0.106 µM,0.527 µM,0.0968 µM,"CN(Cc1ccc(C(F)(F)F)cc1)S(=O)(=O)c1cc(C(N)=O)c(NC(=O)c2cc[nH]n2)s1 [Compound 175, N-(3-carbamoyl-5-(N-methyl-N-(4-(trifluoromethyl)benzyl)sulfamoyl)thiophen-2-yl)-1H-pyrazole-3-carboxamide]"
0.0369 µM,0.0422 µM,0.54 µM,0.0338 µM,"NC(=O)c1cc(S(=O)(=O)c2ccc(F)cc2)sc1NC(=O)C1(O)CCC1 [Compound 226, 5-(4-fluorophenylsulfonyl)-2-(1-hydroxycyclobutanecarboxamido) thiophene-3-carboxamide]"
0.22 µM,0.401 µM,3.07 µM,0.146 µM,"NC(=O)c1cc(S(=O)(=O)N2CCOCC2)sc1NC(=O)c1ccccc1C(F)(F)F [Compound 78, 5-(morpholinosulfonyl)-2-(2-(trifluoromethyl)benzamido)thiophene-3-carboxamide]"
0.0334 µM,0.0606 µM,0.298 µM,0.0207 µM,"CN(CC(C)(C)C)S(=O)(=O)c1cc(C(N)=O)c(NC(=O)c2cc[nH]n2)s1 [Compound 192, N-(3-carbamoyl-5-(N-methyl-N-neopentylsulfamoyl)thiophen-2-yl)-1H-pyrazole-3-carboxamide]"
0.0257 µM,0.153 µM,0.526 µM,0.0127 µM,"CC1(C)CN(S(=O)(=O)c2cc(C(N)=O)c(NC(=O)c3ccccc3F)s2)C1 [Compound 183, 5-(3,3-dimethylazetidin-1-ylsulfonyl)-2-(2-fluorobenzamido)thiophene-3-carboxamide]"
0.862 µM,0.292 µM,,,"CC(C)c1cc(C(=O)Nc2sc(S(=O)(=O)N3CCC(F)(F)CC3)cc2C(N)=O)c(O)c(C(C)C)c1 [Compound 215, 5-(4,4-difluoropiperidin-1-ylsulfonyl)-2-(2-hydroxy-3,5-diisopropylbenzamido) thiophene-3-carboxamide]"
0.118 µM,0.0873 µM,0.541 µM,0.0528 µM,"NC(=O)c1cc(S(=O)(=O)N2CCC(F)(F)CC2)sc1NC(=O)C1(O)CCC1 [Compound 213, 5-(4,4-difluoropiperidin-1-ylsulfonyl)-2-(1-hydroxycyclobutanecarboxamido) thiophene-3-carboxamide]"
0.0727 µM,0.196 µM,0.41 µM,,"CN(CC1CC1)S(=O)(=O)c1cc(C(N)=O)c(NC(=O)c2ccccc2F)s1 [Compound 218, 5-(N-(cyclopropylmethyl)-N-methylsulfamoyl)-2-(2-fluorobenzamido) thiophene-3-carboxamide]"
0.0318 µM,0.0379 µM,0.327 µM,0.0621 µM,"NC(=O)c1cc(S(=O)(=O)c2ccc(F)cc2)sc1NC(=O)c1ccccc1O [Compound 223, 5-(4-fluorophenylsulfonyl)-2-(2-hydroxybenzamido) thiophene-3-carboxamide]"
0.0345 µM,0.0739 µM,0.314 µM,0.006 µM,"CN(C1CC1)S(=O)(=O)c1cc(C(N)=O)c(NC(=O)c2cc[nH]n2)s1 [Compound 209, N-(3-carbamoyl-5-(N-cyclopropyl-N-methylsulfamoyl)thiophen-2-yl)-1H-pyrazole-3-carboxamide]"
0.0372 µM,0.117 µM,,0.0258 µM,"NC(=O)c1cc(S(=O)(=O)N2CCC(F)(F)CC2)sc1NC(=O)c1c(O)cc(F)cc1F [Compound 214, 2-(2,4-difluoro-6-hydroxybenzamido)-5-(4,4-difluoropiperidin-1-ylsulfonyl) thiophene-3-carboxamide]"
0.0314 µM,0.0726 µM,0.134 µM,0.0069 µM,"CC1(C)CN(S(=O)(=O)c2cc(C(N)=O)c(NC(=O)c3cc[nH]n3)s2)C1 [Compound 206, N-(3-carbamoyl-5-(3,3-dimethylazetidin-1-ylsulfonyl)thiophen-2-yl)-1H-pyrazole-3-carboxamide]"
2.31 µM,> 1 µM,,,"CC(C)S(=O)(=O)c1cc(C(N)=O)c(NC(=O)C(C)(C)O)s1 [Compound 220, 2-(2-hydroxy-2-methylpropanamido)-5-(isopropylsulfonyl) thiophene-3-carboxamide]"
> 1 µM,> 1 µM,,,"CC(C)(O)C(=O)Nc1sc(S(C)(=O)=O)cc1C(N)=O [Compound 219, 2-(2-hydroxy-2-methylpropanamido)-5-(methylsulfonyl) thiophene-3-carboxamide]"
0.0261 µM,0.0229 µM,0.583 µM,0.0332 µM,"Cc1cc(F)ccc1S(=O)(=O)c1cc(C(N)=O)c(NC(=O)C2(O)CC2)s1 [Compound 222, 5-(4-fluoro-2-methylphenylsulfonyl)-2-(1-hydroxycyclopropanecarboxamido) thiophene-3-carboxamide]"
0.0312 µM,0.0222 µM,0.332 µM,0.0849 µM,"CC(C)c1ccccc1S(=O)(=O)c1cc(C(N)=O)c(NC(=O)c2ccccc2F)s1 [Compound 179, 2-(2-fluorobenzamido)-5-(2-isopropylphenylsulfonyl) thiophene-3-carboxamide]"
0.0703 µM,0.184 µM,,,"NC(=O)c1cc(S(=O)(=O)N2CCOCC2)sc1NC(=O)c1c(O)cc(F)cc1F [Compound 212, 2-(2,4-difluoro-6-hydroxybenzamido)-5-(morpholinosulfonyl) thiophene-3-carboxamide]"
0.07 µM,,2.28 µM,0.182 µM,"CN(C)c1cccc(S(=O)(=O)c2cc(C(N)=O)c(NC(=O)C(C)(C)O)s2)c1 [Compound 292, 5-(3-(dimethylamino)phenylsulfonyl)-2-(2-hydroxy-2-methylpropanamido) thiophene-3-carboxamide]"
0.0375 µM,,1.67 µM,0.0085 µM,"CC(C)(O)C(=O)Nc1sc(S(=O)(=O)c2cc(Cl)ccc2F)cc1C(N)=O [Compound 303, 5-(5-chloro-2-fluorophenylsulfonyl)-2-(2-hydroxy-2-methylpropanamido) thiophene-3-carboxamide]"
0.033 µM,,0.935 µM,0.0101 µM,"CC(C)(O)C(=O)Nc1sc(S(=O)(=O)c2cccc(OC(F)(F)F)c2)cc1C(N)=O [Compound 269, 2-(2-hydroxy-2-methylpropanamido)-5-(3-(trifluoromethoxy)phenylsulfonyl) thiophene-3-carboxamide]"
0.0173 µM,,0.163 µM,0.0096 µM,"NC(=O)c1cc(S(=O)(=O)N2CCOc3ccccc32)sc1NC(=O)C1(O)CC1 [Compound 242, 5-(2H-benzo[b][1,4]oxazin-4(3H)-ylsulfonyl)-2-(1-hydroxycyclopropanecarboxamido) thiophene-3-carboxamide]"

# Source: US9382254B2, “Compounds and pharmaceutical compositions thereof for the treatment of cystic fibrosis” (Galapagos NV, priority 2013, dated 2016)
